The values below come from patent US20100249145A1, “Inhibitors of VEGF Receptor and HGF Receptor Signaling” (Methylgene, Inc., priority 2005, published 2010).

A value given as a limit tells only on which side of the number the result lay.

The target of test [1] is T1, recombinant human c-Met/HGF receptor (Homo sapiens, UniProt P08581).
T1 construct: His tag (histidine tag from pBlueBacHis2A); made in house; host or cells: Hi-5 cells (Trichoplusia ni), recombinant baculovirus
The test is described as follows: In vitro receptor tyrosine kinase assay (DELFIA), c-Met/HGF receptor. The conditions noted are these: Table 31; ATP 10 uM, enzyme 25 nM; read-out: CMet ic50. The format is biochemical.

The next test relates to DU145. The test is described as follows: DU145 scattering inhibition (HGF dependent scattering). The format is cell-based. The conditions noted are these: Homo sapiens, DU-145, Table 31, read-out: DU145 scattering inhib IC50. An excerpt: (§1) HGF has well known activity in terms of inducing scattering and migration (wound healing) (Wells et al., Cell Motil Cytoskeleton. 2005 November 62(3):180-94; Miura et al., Urology 2001 December 58(6):1064-9; Nishimura et al., Int J. Urol. 1998 May 5(3):276-81; Wang et al., Mol Cancer Ther. 2003 November; 2(11):1085-92; and Christensen et al., Cancer Res. 2003 Nov. 1; 63(21):7345-55).

The target of the next test is T2, VEGF receptor KDR (Homo sapiens, UniProt P35968).
T2 construct: made in house; host or cells: Sf9 cells (Spodoptera frugiperda), recombinant baculovirus
T2 sequence (P35968 806-1356): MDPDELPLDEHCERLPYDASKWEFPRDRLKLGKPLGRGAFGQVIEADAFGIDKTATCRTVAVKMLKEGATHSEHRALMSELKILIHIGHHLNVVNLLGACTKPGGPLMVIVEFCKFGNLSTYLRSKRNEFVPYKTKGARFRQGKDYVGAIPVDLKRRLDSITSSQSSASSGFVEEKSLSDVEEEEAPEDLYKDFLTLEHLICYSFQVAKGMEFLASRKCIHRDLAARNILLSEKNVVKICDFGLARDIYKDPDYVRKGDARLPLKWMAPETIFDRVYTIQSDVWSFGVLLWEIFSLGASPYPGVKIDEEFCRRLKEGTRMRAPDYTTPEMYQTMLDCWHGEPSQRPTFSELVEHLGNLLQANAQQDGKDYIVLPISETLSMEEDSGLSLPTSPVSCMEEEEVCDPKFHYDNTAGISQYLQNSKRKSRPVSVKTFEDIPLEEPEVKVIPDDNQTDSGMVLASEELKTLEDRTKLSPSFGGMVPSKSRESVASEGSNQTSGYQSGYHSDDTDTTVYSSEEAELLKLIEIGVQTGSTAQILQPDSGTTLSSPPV
As to the kind of experiment: In vitro receptor tyrosine kinase assay (DELFIA), VEGF receptor KDR. The format is biochemical. Conditions: Table 31; ATP 0.6 uM, enzyme 5 nM; read-out: VEGFR IC50. The text has this: In Vitro Receptor Tyrosine Kinase Assays (c-Met/HGF receptor and VEGF Receptor KDR)
In the case of VEGF receptor KDR a 1.6-kb cDNA corresponding to the catalytic domain of VEGFR2 or KDR (Genbank accession number AF035121 amino acid 806 to 1356) was cloned into the Pst I site of the pDEST20 Gateway vector (Invitrogen) for the production of a GST-tagged version of that enzyme.
The GST-VEGFR2806-1356 protein was expressed in Sf9 cells (Spodoptera frugiperda) upon infection with recombinant baculovirus construct.
The supernatant was loaded onto a GST-agarose column (Sigma) equilibrated with PBS pH 7.3. Following a four column volume (CV) wash with PBS pH 7.3+1% Triton X-100 and 4 CV wash with buffer B (50 mM Tris pH 8.0, 20% glycerol and 100 mM NaCl), bound proteins were step eluted with 5 CV of buffer B supplemented with 5 mM DTT and 15 mM glutathion. […] Final GST-VEGFR2806-1356 protein preparations concentrations were about 0.7 mg/ml with purity approximating 70%.

For another test, the system named is A549. The test is described as follows: A549 wound healing inhibition (HGF dependent migration). The format is cell-based. The conditions noted are these: Homo sapiens, Table 31, read-out: A549 wound healing inbib IC50.
From the text: as §1

T1 sequence (P08581 1078-1337): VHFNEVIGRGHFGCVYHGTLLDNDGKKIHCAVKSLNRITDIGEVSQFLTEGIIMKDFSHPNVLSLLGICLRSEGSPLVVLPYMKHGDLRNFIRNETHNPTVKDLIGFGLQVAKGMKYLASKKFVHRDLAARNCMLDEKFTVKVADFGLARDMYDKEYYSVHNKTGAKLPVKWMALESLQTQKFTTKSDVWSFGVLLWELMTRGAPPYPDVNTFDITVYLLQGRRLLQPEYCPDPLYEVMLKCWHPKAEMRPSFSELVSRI

As for `C#Cc1cccc(CC(=O)NC(=S)Nc2ccc(Oc3ccnc4cc(-c5cn(C)cn5)sc34)c(F)c2)c1`, the IC50 (commonly the concentration needed to halve the response being measured) in test [1] was < 0.05 µM; in the test on DU145 it was 1 to 5 µM; at VEGF receptor KDR it was < 0.05 µM; with A549, 1 to 5 µM.
For `CN(c1ccc(NC(=S)NC(=O)Cc2ccccc2)cc1F)c1ccnc2ccsc12`, the IC50 is 0.25 to 0.5 µM in test [1], 5 to 10 µM with DU145, > 0.5 µM at VEGF receptor KDR and 5 to 10 µM with A549.
Turning to `C=C(F)c1cccc(CC(=O)NC(=S)Nc2ccc(Oc3ccnc4cc(-c5cn(C)cn5)sc34)c(F)c2)c1`, the IC50 in test [1] fell in the range of 0.05 to 0.25 µM; with DU145, 1 to 5 µM; at VEGF receptor KDR, 0.05 to 0.25 µM; with A549, 1 to 5 µM.
With `COCCNCc1ccc(-c2cc3nccc(Oc4ccc(NC(=O)NC(=O)Cc5ccc(F)cc5)cc4F)c3s2)cc1`, the IC50 in test [1] was < 0.05 µM; in the test on DU145 it was < 1 µM; on VEGF receptor KDR, 0.05 to 0.25 µM; in the test with A549 it was < 1 µM.
Turning to `CC(=O)N1CC=C(c2cc3nccc(Oc4ccc(NC(=S)NC(=O)Cc5ccc(F)cc5)cc4F)c3s2)CC1`, the IC50 in test [1] is < 0.05 µM; in the test with DU145, < 1 µM; at VEGF receptor KDR, < 0.05 µM; with A549, < 1 µM.
Regarding `CCn1cnc(-c2cc3nccc(Oc4ccc(NC(=S)NC(=O)Cc5ccc(F)cc5)cc4F)c3s2)c1`, the IC50 in test [1] was < 0.05 µM; with DU145, < 1 µM; at VEGF receptor KDR, < 0.05 µM; with A549, < 1 µM.
For the compound `C#Cc1ccc(CC(=O)NC(=S)Nc2ccc(Oc3ccnc4cc(-c5cn(CCN6CCCC6)cn5)sc34)c(F)c2)cc1`, the 50% inhibitory concentration (IC50) in test [1] is 0.05 to 0.25 µM; in the test with DU145, > 10 µM; on VEGF receptor KDR, < 0.05 µM; with A549, > 10 µM.
Take `C#Cc1cccc(F)c1CC(=O)NC(=S)Nc1ccc(Oc2ccnc3cc(-c4cn(C)cn4)sc23)c(F)c1`: the IC50 in test [1] is < 0.05 µM; in the test with DU145, < 1 µM; at VEGF receptor KDR it was < 0.05 µM; in the test with A549 it was < 1 µM.
For the compound `CN(c1ccc(NC(=S)NC(=O)Cc2ccccc2)cc1F)c1ccnc2cc(-c3nccn3C)sc12`, the IC50 in test [1] is < 0.05 µM; in the test with DU145, < 1 µM; at VEGF receptor KDR it was > 0.5 µM; in the test on A549, < 1 µM.
On to `Cn1ccnc1-c1cc2nccc(Oc3ccc(NC(=S)NC(=O)Cc4ccc(F)cc4)cc3F)c2s1`, for which the half-maximal inhibitory concentration (IC50) in test [1] was < 0.05 µM; in the test with DU145, < 1 µM; at VEGF receptor KDR, < 0.05 µM; in the test with A549, < 1 µM.
`CCn1cnc(-c2cc3nccc(Oc4ccc(NC(=S)NC(=O)Cc5ccccc5O)cc4F)c3s2)c1`: the IC50 in test [1] was < 0.05 µM; with DU145, 1 to 5 µM; at VEGF receptor KDR, < 0.05 µM; with A549, 1 to 5 µM.
`CS(=O)(=O)c1ccc(-c2cc3nccc(Oc4ccc(NC(=S)NC(=O)Cc5ccc(F)cc5)cc4F)c3s2)cc1`: the IC50 was < 0.05 µM in test [1], < 1 µM in the test on DU145, 0.05 to 0.25 µM at VEGF receptor KDR and < 1 µM in the test on A549.
As to `CN1CC=C(c2cc3nccc(Oc4ccc(NC(=S)NC(=O)Cc5ccc(F)cc5)cc4F)c3s2)CC1`, the concentration for half-maximal inhibition (IC50) was < 0.05 µM in test [1], < 1 µM in the test with DU145, 0.25 to 0.5 µM at VEGF receptor KDR and < 1 µM in the test with A549.
As for `Cn1cnc(-c2cc3nccc(Oc4ccc(NC(=S)NC(=O)Cc5cccc(F)c5)cc4F)c3s2)c1`, the concentration for half-maximal inhibition (IC50) in test [1] was < 0.05 µM; with DU145, < 1 µM; on VEGF receptor KDR it was 0.05 to 0.25 µM; in the test on A549, < 1 µM.
Turning to `CN1CCN(Cc2ccc(-c3cc4nccc(Oc5ccc(NC(=S)NC(=O)Cc6ccccc6)cc5F)c4s3)nc2)CC1`, the half-inhibitory concentration (IC50) was < 0.05 µM in test [1], < 1 µM in the test on DU145, < 0.05 µM on VEGF receptor KDR and < 1 µM in the test with A549.
Take `Cn1cnc(-c2cc3nccc(Oc4ccc(NC(=S)NC(=O)Cc5ccc(F)cc5F)cc4F)c3s2)c1` [drawing 434]: the half-maximal inhibitory concentration (IC50) is < 0.05 µM in test [1], < 1 µM with DU145, < 0.05 µM at VEGF receptor KDR and < 1 µM with A549.
Turning to `CCn1cc(-c2cc3nccc(Oc4ccc(NC(=S)NC(=O)Cc5ccccc5)cc4F)c3s2)nn1`, the half-maximal inhibitory concentration (IC50) in test [1] is < 0.05 µM; with DU145, < 1 µM; on VEGF receptor KDR it was 0.25 to 0.5 µM; in the test with A549 it was < 1 µM.
With `C#Cc1ccc(CC(=O)NC(=S)Nc2ccc(Oc3ccnc4cc(-c5cn(CC)cn5)sc34)c(F)c2)cc1F`, the IC50 in test [1] is 0.05 to 0.25 µM; in the test on DU145, 1 to 5 µM; at VEGF receptor KDR, < 0.05 µM; in the test with A549, > 10 µM.
In the same order, the values of `CCn1cnc(-c2cc3nccc(Oc4ccc(NC(=S)NC(=O)Cc5ccc(F)cc5F)cc4F)c3s2)c1` are < 0.05 µM, < 1 µM, < 0.05 µM and 1 to 5 µM.
In the same order, the values of `CN1CC=C(c2cc3nccc(Oc4ccc(NC(=S)NC(=O)Cc5ccccc5)cc4F)c3s2)CC1` are < 0.05 µM, < 1 µM, 0.25 to 0.5 µM and < 1 µM.
In the same order, the values of `CN(c1ccc(NC(=S)NC(=O)Cc2ccccc2)cc1F)c1ccnc2cc(-c3cn(C)cn3)sc12` are < 0.05 µM, < 1 µM, > 0.5 µM and < 1 µM.
For `C#Cc1cc(F)ccc1CC(=O)NC(=S)Nc1ccc(Oc2ccnc3cc(-c4cccc[n+]4[O-])sc23)c(F)c1`, the IC50 in test [1] was < 0.05 µM; with DU145 it was < 1 µM; on VEGF receptor KDR it was < 0.05 µM; in the test with A549, < 1 µM.
Regarding `CN(C)C(=O)c1ccc(-c2cc3nccc(Oc4ccc(NC(=S)NC(=O)Cc5ccc(F)cc5)cc4F)c3s2)cc1`, the IC50 in test [1] was < 0.05 µM; in the test with DU145, < 1 µM; on VEGF receptor KDR it was < 0.05 µM; with A549, < 1 µM.
Consider `CO/N=C(\C)c1cc2nccc(Oc3ccc(NC(=S)NC(=O)Cc4ccccc4)cc3F)c2s1`, for which the IC50 in test [1] is < 0.05 µM; in the test on DU145, 1 to 5 µM; on VEGF receptor KDR, 0.05 to 0.25 µM; with A549, 1 to 5 µM.
Regarding `CCN(CCOC)Cc1ccc(-c2cc3nccc(Oc4ccc(NC(=S)NC(=O)Cc5ccc(F)cc5)cc4F)c3s2)cc1`, the half-maximal inhibitory concentration (IC50) was < 0.05 µM in test [1], < 1 µM in the test on DU145, < 0.05 µM at VEGF receptor KDR and < 1 µM in the test on A549.
For `C#Cc1cc(F)ccc1CC(=O)NC(=S)Nc1ccc(Oc2ccnc3cc(-c4cn(CCN5CCCC5)cn4)sc23)c(F)c1`, the IC50 was < 0.05 µM in test [1], < 1 µM in the test with DU145, < 0.05 µM on VEGF receptor KDR and < 1 µM in the test with A549.
Regarding `CCn1cnc(-c2cc3nccc(Oc4ccc(NC(=S)NC(=O)Cc5cccc(F)c5)cc4F)c3s2)c1`, the IC50 in test [1] is < 0.05 µM; with DU145, < 1 µM; on VEGF receptor KDR it was < 0.05 µM; in the test with A549, < 1 µM.
`O=C(Cc1ccc(F)cc1)NC(=S)Nc1ccc(Oc2ccnc3cc(-c4cccc[n+]4[O-])sc23)c(F)c1`: the 50% inhibitory concentration (IC50) was < 0.05 µM in test [1], < 1 µM in the test on DU145, < 0.05 µM on VEGF receptor KDR and < 1 µM in the test with A549.
For `COCCNCc1ccc(-c2cc3nccc(Oc4ccc(NC(=S)NC(=O)Cc5ccc(F)cc5)cc4F)c3s2)cc1`, the IC50 in test [1] is < 0.05 µM; in the test with DU145, < 1 µM; on VEGF receptor KDR, < 0.05 µM; in the test with A549, < 1 µM.
`C#Cc1ccc(CC(=O)NC(=S)Nc2ccc(Oc3ccnc4cc(-c5nccn5C)sc34)c(F)c2)cc1`: the 50% inhibitory concentration (IC50) in test [1] is 0.05 to 0.25 µM; in the test on DU145 it was > 10 µM; at VEGF receptor KDR, 0.05 to 0.25 µM; in the test with A549 it was 1 to 5 µM.
As to `C#Cc1ccccc1CC(=O)NC(=S)Nc1ccc(Oc2ccnc3cc(-c4nccn4C)sc23)c(F)c1`, the IC50 was < 0.05 µM in test [1], < 1 µM in the test with DU145, < 0.05 µM at VEGF receptor KDR and < 1 µM in the test on A549.
Regarding `C#Cc1ccc(F)c(CC(=O)NC(=S)Nc2ccc(Oc3ccnc4cc(-c5nccn5C)sc34)c(F)c2)c1`, the 50% inhibitory concentration (IC50) in test [1] is < 0.05 µM; with DU145, 1 to 5 µM; on VEGF receptor KDR, < 0.05 µM; in the test on A549, 1 to 5 µM.
On to `CNC(=O)N1CCN(Cc2ccc(-c3cc4nccc(Oc5ccc(NC(=S)NC(=O)Cc6ccccc6)cc5F)c4s3)cc2)CC1`, for which the half-inhibitory concentration (IC50) in test [1] was < 0.05 µM; with DU145 it was < 1 µM; at VEGF receptor KDR, < 0.05 µM; in the test on A549 it was < 1 µM.
In the case of `CNC(=O)N1CCN(Cc2ccc(-c3cc4nccc(Oc5ccc(NC(=S)NC(=O)Cc6ccc(F)cc6)cc5F)c4s3)cc2)CC1`, the IC50 in test [1] was < 0.05 µM; in the test with DU145 it was < 1 µM; on VEGF receptor KDR, < 0.05 µM; in the test with A549, < 1 µM.
